Assay results: publication PMC11642016 (International Journal of Molecular Sciences, 2024)

Legend:
[1] = in vitro; conditions: human, HEK293T WT Cell viability (% of controll), dose–response, individual replicates
Protocol: Primary fibroblast cultures were prepared from human skin biopsies and maintained in DMEM supplemented with 10% FBS, 1% penicillin-streptomycin, and 1% MEM Non-Essential Amino Acids Solution (Thermo Fisher Scientific). […] All cell lines were cultured in a humidified atmosphere at 37 °C and 5% CO2, passaged twice a week, and the experiments were performed on cells between passage 5 and 15. The cell lines were routinely screened for the absence of mycoplasma infection (DAPI staining).
The effects of the synthesized compounds on cell viability were measured using the CellTiter-Glo® luminescent cell viability assay (Promega, Madison, WI, USA), according to the manufacturer’s instructions. Briefly, cells were seeded onto a flat-bottomed, white 96-well plate (BRANDplates, cat. no.: 781965)), with the following densities: PANC-1: 750 cells/well, Fadu: 2000 cells/well, primary fibroblasts: 2000 cells/well, HEK293T WT: 1000 cells/well, HEK293T CLPP^−/−: 2500 cells/well. After seeding, cells were incubated for a further 48 h before treatment. Cells were treated with the compounds for 72 h. Three concentrations (25.0 µM; 8.3 µM; 2.8 µM) were applied during the initial cell viability screening, while for the determination of dose–response curves, 1.5-fold serially diluted compound concentrations were applied (range: 26 µM–0.7 µM). After treatment, the luminescence signal was recorded using a microplate reader (BioTek Synergy 2 Multi-Mode Reader, BioTek, Winooski, VT, USA).
Data analysis was performed using GraphPad Prism 9.5.0 software (GraphPad Software, San Diego, CA, USA). […] The dose–response curves were generated by four-parameter nonlinear regression, and the IC50 values were determined as the means ± SEM of the best-fit values of 3 independent measurements. The R^2 values were consistently above 0.93, indicating a strong fit of the model to the experimental data (Supplementary S.89). […] Dunnett’s post hoc test was applied to adjust for multiple comparisons, minimizing the likelihood of false positive results. Assumptions for ANOVA, including normality (assessed via QQ plots) and homogeneity of variance (tested using the Brown–Forsythe test), were verified. The following significance levels were applied: * p < 0.05, ** p < 0.01, *** p < 0.001, **** p < 0.0001. […] The tumor selectivity of the compounds was quantitatively characterized by the selectivity index (SI). This parameter was calculated as the ratio of the average best-fit IC50 value for primary fibroblasts and the best-fit IC50 value for the corresponding tumor cells (PANC-1 or Fadu).

[2] = in vitro; conditions: human, fibroblast viability in the tested concentration range, dose–response range 26–0.7 µM

Compound: Cc1ccccc1CN1C(=O)C2=C(CCN(Cc3ccccc3)C2)N2CCN=C12 [ONC201, reference compound]
- viability at 72 h, 0.6 µM ([1]; 0.6 μM): 60%
- viability at 72 h, 1 µM ([1]; 1.0 μM): 30%
- viability at 72 h, 1.6 µM ([1]; 1.6 μM): 28%
- viability at 72 h, 2.5 µM ([1]; 2.5 μM): 21%
- viability at 72 h, 4 µM ([1]; 4.0 μM): 19%
- viability at 72 h, 6.4 µM ([1]; 6.4 μM): 18%
- viability at 72 h, 16.25 µM ([1]; 16.25 μM): 15%
- viability at 72 h, 26 µM ([1]; 26 μM): 15%
- viability at 72 h [2]: > 50%
